Assay results as given in patent US4725591A, “β-lactamase inhibitory composition” (Takeda Chemical Industries, Ltd., priority 1980, dated 1988).

Assays:
[1] = target: T1, β-lactamase produced by Enterobacter cloacae IFO 12937 (Enterobacter cloacae, UniProt P05364); test: Inhibitor concentration required to inhibit β-lactamase (cephalosporinase) activity by 50%, micro-iodometric method; assay type: biochemical; conditions: Enterobacter cloacae IFO 12937 cephalosporinase; 0.05M phosphate buffer pH 7, 30° C., 10 minutes preincubation; cephalothin or ampicillin 0.1 mM; read-out: I50 (converted)
T1 construct: The β-lactamase produced by Enterobacter cloacae IFO 12937; endogenous in cells; host or cells: Enterobacter cloacae IFO 12937
Description: (§1) Determination of the inhibitor concentration required to inhibit the enzyme activity by 50%
(§2) The β-lactamase produced by Enterobacter cloacae IFO 12937 is used as a typical example of cephalosporinase, and that produced by Staphylococcus aureus 1840 as typical example of penicillinase. The β-lactamase in incubated is 0.05M phosphate buffer (pH 7) with an appropriate dilution of an inhibitor preparation at 30° C. for 10 minutes. Cephalothin or ampicillin is then added in an amount sufficient to produce a final concentration of 0.1 mM, and the enzymatic reaction is allowed to proceed for 10 minutes. The enzyme activity is determined by the micro-iodometric method [Journal of general Microbiology, vol. 33, page 121 (1963)]. Hereinafter, the inhibitor concentration required to inhibit the enzyme activity by 50% is expressed as I50. The I50 values for Enterobacter cloaceae are shown in Table 1, and the I50 values for Staphylococcus aureus in Table 2.

Proteus vulgaris GN 5297 = test: Synergy with Cefotiam, agar dilution MIC; assay type: cell-based; conditions: Table 4, 1 μg/ml test compound in agar, inoculum 10^8 per ml, 18 hours
Description: (§3) The inoculum concentration is 10^8 per ml, and the medium is prepared by using Trypticase® soy agar (Becton Dickinson & Company, USA).

[2] = tested on: Citrobacter freundii TN 512; test: Synergy with Cefotiam, agar dilution MIC; assay type: cell-based; conditions: Table 4, 1 μg/ml test compound in agar, inoculum 10^8 per ml, 18 hours
Description: as §3

[3] = tested on: Citrobacter freundii GN 1706; test: Synergy with Cefotiam, agar dilution MIC; assay type: cell-based; conditions: Table 4, 1 μg/ml test compound in agar, inoculum 10^8 per ml, 18 hours
Description: as §3

Proteus morganii TN 387 = test: Synergy with Cefotiam, agar dilution MIC; assay type: cell-based; conditions: Table 4, 1 μg/ml test compound in agar, inoculum 10^8 per ml, 18 hours
Description: as §3

[4] = tested on: Enterobacter cloacae IFO 12937; test: Synergy with Cefotiam, agar dilution MIC; assay type: cell-based; conditions: Table 4, 1 μg/ml test compound in agar, inoculum 10^8 per ml, 18 hours
Description: as §3

[5] = target: T2, β-lactamase produced by Staphylococcus aureus 1840 (Staphylococcus aureus, UniProt P00807); test: Inhibitor concentration required to inhibit β-lactamase (penicillinase) activity by 50%, micro-iodometric method; assay type: biochemical; conditions: Staphylococcus aureus 1840 penicillinase; 0.05M phosphate buffer pH 7, 30° C., 10 minutes preincubation; cephalothin or ampicillin 0.1 mM; read-out: I50 (converted)
T2 construct: endogenous in cells; host or cells: Staphylococcus aureus 1840
Description: as §1, §2

T1 sequence (P05364 21-381): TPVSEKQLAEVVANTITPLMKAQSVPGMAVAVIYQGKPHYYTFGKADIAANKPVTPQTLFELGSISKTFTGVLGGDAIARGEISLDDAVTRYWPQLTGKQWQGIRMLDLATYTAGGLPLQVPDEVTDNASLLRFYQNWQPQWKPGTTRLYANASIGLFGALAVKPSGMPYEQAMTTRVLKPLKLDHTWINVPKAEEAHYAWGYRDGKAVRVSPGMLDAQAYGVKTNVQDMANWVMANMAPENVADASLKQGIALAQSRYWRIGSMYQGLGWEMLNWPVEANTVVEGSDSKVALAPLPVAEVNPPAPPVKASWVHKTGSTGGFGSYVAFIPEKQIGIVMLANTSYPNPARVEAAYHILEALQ

IC50 [1] [µM] | Compound | further results
7.1 | COc1cccc(OC)c1C(=O)NC1CN(S(=O)(=O)O)C1=O (stereo not shown) | –
0.622 | CON=C(C(=O)NC1CN(S(=O)(=O)O)C1=O)c1nc(NC(=O)CCl)sc1Cl (stereo not shown) | –
2.96 | CON=C(C(=O)NC1CN(S(=O)(=O)O)C1=O)c1nc(N)sc1Cl (stereo not shown) | –
1.25 | Cc1ccc(SN=C(C(=O)NC2CN(S(=O)(=O)O)C2=O)c2ccccc2)cc1 (stereo not shown) | –
5.68 | CCN1CCN(C(=O)NC(C(=O)NC2CN(S(=O)(=O)O)C2=O)C2=C(Cl)CCCC2)C(=O)C1=O (stereo not shown) | –
0.0501 | CC(C)ON=C(C(=O)NC1CN(S(=O)(=O)O)C1=O)c1csc(N)n1 (stereo not shown) | –
0.954 | COC1(NC(=O)C(N=[N+]=[N-])c2ccccc2)CN(S(=O)(=O)O)C1=O (stereo not shown) | –
0.387 | COc1ccc(COC(=O)C(C(=O)NC2(OC)CN(S(=O)(=O)O)C2=O)c2ccc(O)cc2)cc1 (stereo not shown) | –
– | O=C(NC1CN(S(=O)(=O)O)C1=O)C(=O)c1ccccc1 (stereo not shown) | IC50 [5]: 12.5 µM
– | O=C(NC1CN(S(=O)(=O)O)C1=O)C(Br)c1ccccc1 (stereo not shown) | IC50 [5]: 0.493 µM
– | [N-]=[N+]=NC(C(=O)NC1CN(S(=O)(=O)O)C1=O)c1ccccc1 (stereo not shown) | IC50 [5]: 0.144 µM
– | [N-]=[N+]=NC(C(=O)NC1CN(S(=O)(=O)O)C1=O)c1cccc(Cl)c1 (stereo not shown) | IC50 [5]: 0.147 µM
5.02 | CCCCCCCCN1CCN(C(=O)N[C@@H](C(=O)NC2CN(S(=O)(=O)O)C2=O)c2cccs2)C(=O)C1=O (stereo partly drawn) [Compound 1, Sodium 3-[D-2-(4-n-octyl-2,3-dioxo-1-piperazinecarboxamido)-2-thienylacetamido]-2-oxoazetidine-1-sulfoante] | –
0.0783 | CCCCCCCCN1CCN(C(=O)NC(C(=O)NC2(OC)CN(S(=O)(=O)O)C2=O)c2cccs2)C(=O)C1=O (stereo not shown) [Compound 2] | –
0.617 | COC1(NC(=O)[C@H](NC(=O)N2CCN(N=Cc3ccco3)C2=O)c2ccccc2)CN(S(=O)(=O)O)C1=O (stereo partly shown) [Compound 3] | MIC of Cefotiam with 1 μg/ml of Compound (Proteus vulgaris GN 5297): 400; MIC of Cefotiam with 1 μg/ml of Compound [2]: 0.39; MIC of Cefotiam with 1 μg/ml of Compound [3]: 12.5; MIC of Cefotiam with 1 μg/ml of Compound (Proteus morganii TN 387): 0.39; MIC of Cefotiam with 1 μg/ml of Compound [4]: 3.13
0.0892 | COC1(NC(=O)C(C(=O)OCc2ccccc2)c2ccccc2)CN(S(=O)(=O)O)C1=O (stereo not shown) [Compound 4] | –
0.391 | COC1(NC(=O)C(C(=O)O)c2ccccc2)CN(S(=O)(=O)O)C1=O (stereo not shown) [Compound 5] | –
2.4 | CNC(=O)CC(NC(=O)OCc1ccccc1)C(=O)NC1(OC)CN(S(=O)(=O)O)C1=O (stereo not shown) [Compound 6] | –
2.15 | CCN1CCN(C(=O)N[C@H](Cc2ccccc2)C(=O)NC2(OC)CN(S(=O)(=O)O)C2=O)C(=O)C1=O (stereo partly shown) [Compound 7] | –
7.97 | COC1(NC(=O)[C@@H](C)NC(=O)OCc2ccccc2)CN(S(=O)(=O)O)C1=O (stereo partly shown) [Compound 8] | –
4.88 | CCN1CCN(C(=O)NC(C(=O)NC2CN(S(=O)(=O)O)C2=O)C2=CCCCC2)C(=O)C1=O (stereo not shown) [Compound 10] | –
0.523 | CCN1CCN(C(=O)NC(C(=O)NC2(OC)CN(S(=O)(=O)O)C2=O)c2ccccc2)C(=O)C1=O (stereo not shown) [Compound 11] | –
0.712 | CON=C(C(=O)NC1(OC)CN(S(=O)(=O)O)C1=O)c1csc(N)n1 (stereo not shown) [Compound 13] | –

IC50 [1] [µM] | Compound | further results
0.658 | CON=C(C(=O)NC1(OC)CN(S(=O)(=O)O)C1=O)c1csc(NC(=O)CCl)n1 (stereo not shown) [Compound 14] | –
9.46 | O=C(NC1CN(S(=O)(=O)O)C1=O)C(OS(=O)(=O)O)c1ccccc1 (stereo not shown) [Compound 15] | –
15.3 | CON=C(C(=O)NC1CN(S(=O)(=O)O)C1=O)c1ccccc1 (stereo not shown) [Compound 16] | –
5 | COc1cccc(OC)c1C(=O)NC1(OC)CN(S(=O)(=O)O)C1=O (stereo not shown) [Compound 18] | –
0.053 | CC(C)ON=C(C(=O)NC1CN(S(=O)(=O)O)C1=O)c1csc(N)n1 (stereo not shown) [Compound 23] | –
1.2 | COC1(NC(=O)C(C)NC(=O)C(CS(=O)(=O)NS(=O)(=O)O)NC(=O)OCc2ccccc2)CN(S(=O)(=O)O)C1=O (stereo not shown) [Compound 24] | –
6.44 | Cc1onc(-c2c(Cl)cccc2Cl)c1C(=O)N[C@@H](C(=O)NC1CN(S(=O)(=O)O)C1=O)c1cccs1 (stereo partly drawn) [Compound 25, Sodium 3-[D-2-[[3-(2,6-dichlorophenyl)-5-methylisoxazol-4-yl]-carboxamido]-2-thienylacetamido]-2-oxoazetidine-1-suflonate] | IC50 [5]: 0.715 µM
15.1 | COC1(NC(=O)OCc2ccccc2)CN(S(=O)(=O)O)C1=O (stereo not shown) [Compound 30, Sodium 3-benzyloxycarboxamido-3-methoxy-2-oxoazetidine-1-sulfonate] | –
0.873 | O=C(NC1CN(S(=O)(=O)O)C1=O)C(c1cccs1)N1C(=O)c2ccccc2C1=O (stereo not shown) [Compound 34, Sodium 3-(2-phthalimido-2-thienylacetamido)-2-oxoazetidine-1-sulfonate] | –
0.0565 | COC1(NC(=O)C(=NOC(C)C)c2csc(N)n2)CN(S(=O)(=O)O)C1=O (stereo not shown) [Compound 36, Sodium 3-[2-(2-aminothiazol-4-yl)-2-(1-methylethoxyimino)actamido]-3-methoxy-2-oxoazetidine-1-sulfonate] | –
0.215 | COC1(NC(=O)[C@H](NC(=O)N2CCN(C3CCCCC3)C(=O)C2=O)c2cccs2)CN(S(=O)(=O)O)C1=O (stereo partly drawn) [Compound 37, Sodium 3-[D-2-(4-cyclohexyl-2,3-dioxo-1-pipeadinecarboxamido)-2-thienylacetamido]-3-methoxy-2-oxoazetidine-1-sulfonate] | –
0.13 | COC1(NC(=O)[C@H](NC(=O)N2CCN(CC(=O)N3CCCCC3)C(=O)C2=O)c2cccs2)CN(S(=O)(=O)O)C1=O (stereo partly drawn) [Compound 38, Sodium 3-methoxy-3-[D-2-(4-piperidinecarbonylmethyl-2,3-dioxo-1-piperadinecarboxamido)-2-thienylacetamido]-2-oxoazetidine-1-sulfonate] | –
0.127 | COC1(NC(=O)[C@H](NC(=O)N2CCN(c3ccccc3)C(=O)C2=O)c2cccs2)CN(S(=O)(=O)O)C1=O (stereo partly drawn) [Compound 39, Sodium 3-methoxy-3-[D-2-(4-phenyl-2,3-dioxo-1-piperadinecarboxamido)-2-thienylacetamido]-2-oxoazetidine-1-sulfonate] | –
0.124 | COC1(NC(=O)[C@H](NC(=O)N2CCN(C(C)(C)C)C(=O)C2=O)c2cccs2)CN(S(=O)(=O)O)C1=O (stereo partly drawn) [Compound 40, Sodium 3-[D-2-(4-t-butyl-2,3-dioxo-1-piperadinecarboxamido)-2-thienylacetamido]-3-methoxy-2-oxoazetidine-1-sulfonate] | –
0.12 | COC1(NC(=O)[C@H](NC(=O)N2CCN(CC=C(C)C)C(=O)C2=O)c2cccs2)CN(S(=O)(=O)O)C1=O (stereo partly drawn) [Compound 41, Sodium 3-[D-2-[4-(3-methyl-2-butenyl)-2,3-dioxo-1-piperadinecarboxamido]-2-thienylacetamido]-3-methoxy-2-oxoazetidine-1-sulfonate] | –
4.82 | CC(C)(ON=C(C(=O)NC1CN(S(=O)(=O)O)C1=O)c1csc(NC(c2ccccc2)(c2ccccc2)c2ccccc2)n1)C(=O)O (stereo not shown) [Compound 43, Disodium 3-[2-[(1-carboxy-1-methylethoxy)imino]-2-(2-tritylaminothiazol-4-yl)acetamido]-2-oxoazetidine-1-sulfonate] | –
– | CCN1C(=O)C(=O)N(C(=O)N[C@@H](C(=O)NC2CN(S(=O)(=O)O)C2=O)c2cccs2)C[C@@H]1C (stereo partly drawn) [Compound 44, Sodium 3-[D-2-(4-ethyl-5(S)-methyl-2,3-dioxo-2,3-dioxo-1-piperazinecarboxamido)-2-thienylacetamido]-2-oxoazetidine-1-sulfonate] | IC50 [5]: 2.46 µM
– | O=C(NC1CN(S(=O)(=O)O)C1=O)[C@H](NC(=O)N1CCNC1=O)c1cccs1 (stereo partly drawn) [Compound 45, Sodium 3-[D-2-[(2-oxoimidazolidin-1-yl)carboxamido]-2-thienylacetamido]-2-oxoazetidine-1-sulfonate] | IC50 [5]: 5.75 µM
– | O=C(CSc1c(Cl)cccc1Cl)N[C@@H](C(=O)NC1CN(S(=O)(=O)O)C1=O)c1ccccc1 (stereo partly shown) [Compound 46] | IC50 [5]: 9.65 µM
– | Nc1nc(CC(=O)N[C@@H](C(=O)NC2CN(S(=O)(=O)O)C2=O)c2ccccc2)cs1 (stereo partly shown) [Compound 47] | IC50 [5]: 11.4 µM
– | O=C(NC(CS(=O)(=O)NC1CN(S(=O)(=O)O)C1=O)C(=O)OCc1ccccc1)OCc1ccccc1 (stereo not shown) [Compound 48] | IC50 [5]: 3.14 µM
– | CS(=O)(=O)NC1CN(S(=O)(=O)O)C1=O (stereo not shown) [Compound 52] | IC50 [5]: 14.3 µM
– | CCOC(=O)C(C(=O)c1ccccc1)=C1SC(C(=O)NC2CN(S(=O)(=O)O)C2=O)S1 (stereo not shown) [Compound 54] | IC50 [5]: 2.54 µM

Compound | IC50 [1] [µM] | further results
CC(C)(C)OC(=O)C(C)(C)ON=C(C(=O)NC1CN(S(=O)(=O)[O-])C1=O)c1csc(NS(=O)(=O)[O-])n1.[Na+].[Na+] (stereo not shown) | 0.00914 | MIC of Cefotiam with 1 μg/ml of Compound (Proteus vulgaris GN 5297): < 0.2; MIC of Cefotiam with 1 μg/ml of Compound [2]: 0.39; MIC of Cefotiam with 1 μg/ml of Compound [3]: 3.13; MIC of Cefotiam with 1 μg/ml of Compound (Proteus morganii TN 387): 0.2; MIC of Cefotiam with 1 μg/ml of Compound [4]: 0.39
